Measured values: paper PMC7068720, “Rational Design of Mechanism-Based Inhibitors and Activity-Based Probes for the Identification of Retaining α-L-Arabinofuranosidases” (Journal of the American Chemical Society, 2020)
Like-named read-outs stand apart in the source and are kept apart here.

Legend:
[1] = molecular target: T1, AkAbfB (GH54) (Aspergillus luchuensis, UniProt Q8NK89); test: continuous fluorescence assay, irreversible inhibition kinetics; type: biochemical
T1 construct: gene abfB; pPICZalpha, no purification tag, secreted from Pichia pastoris X-33; EndoH-deglycosylated for MS and crystallography
T1 sequence (Q8NK89 18-499): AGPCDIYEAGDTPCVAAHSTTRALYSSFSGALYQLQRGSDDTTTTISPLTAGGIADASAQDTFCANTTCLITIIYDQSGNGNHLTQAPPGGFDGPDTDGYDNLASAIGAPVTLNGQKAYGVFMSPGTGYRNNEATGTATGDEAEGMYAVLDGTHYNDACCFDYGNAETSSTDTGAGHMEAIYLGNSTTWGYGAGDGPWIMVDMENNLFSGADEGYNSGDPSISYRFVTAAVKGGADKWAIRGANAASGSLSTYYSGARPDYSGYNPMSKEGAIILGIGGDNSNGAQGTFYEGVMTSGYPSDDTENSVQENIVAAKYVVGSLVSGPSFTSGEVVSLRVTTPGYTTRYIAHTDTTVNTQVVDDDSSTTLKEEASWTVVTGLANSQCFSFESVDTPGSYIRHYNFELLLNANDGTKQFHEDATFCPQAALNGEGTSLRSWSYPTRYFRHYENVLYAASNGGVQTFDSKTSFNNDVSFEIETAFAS
Text: continuous fluorescence assay, irreversible inhibition kinetics on AkAbfB (GH54)

[2] = molecular target: T2, AnAbfA (GH51) (Aspergillus niger, UniProt A2Q7E0); test: as above; type: biochemical
T2 construct: gene abfA; synthetic gene in pPICZalpha (vector fragment amplified from untagged AkAbfB plasmid), secreted from Pichia pastoris X-33
T2 sequence (A2Q7E0 26-628): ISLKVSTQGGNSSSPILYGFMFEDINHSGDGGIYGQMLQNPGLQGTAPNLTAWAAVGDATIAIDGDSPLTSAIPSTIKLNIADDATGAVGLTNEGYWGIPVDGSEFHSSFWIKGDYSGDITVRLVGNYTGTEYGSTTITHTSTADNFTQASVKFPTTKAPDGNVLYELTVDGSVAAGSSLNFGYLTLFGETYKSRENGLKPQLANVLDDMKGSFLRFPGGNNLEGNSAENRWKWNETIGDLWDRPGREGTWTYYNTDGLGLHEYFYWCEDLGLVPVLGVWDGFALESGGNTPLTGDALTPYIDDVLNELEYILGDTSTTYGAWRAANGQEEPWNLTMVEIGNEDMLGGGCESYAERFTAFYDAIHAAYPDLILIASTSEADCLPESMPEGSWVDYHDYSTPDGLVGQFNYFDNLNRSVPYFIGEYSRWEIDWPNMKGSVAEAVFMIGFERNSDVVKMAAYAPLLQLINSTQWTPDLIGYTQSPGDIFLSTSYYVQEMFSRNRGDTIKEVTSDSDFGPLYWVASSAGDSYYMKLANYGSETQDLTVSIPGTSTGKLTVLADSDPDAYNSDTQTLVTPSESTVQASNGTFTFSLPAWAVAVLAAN
Text: continuous fluorescence assay, irreversible inhibition kinetics on AnAbfA (GH51)

[3] = molecular target: T3, AnAbfB (AbfB, GH54) (Aspergillus niger, UniProt A2R511); test: competition with ABP […] pull-down, LC-MS/MS; type: biochemical; details: covalent; 0.1 mM inhibitor 1 h, pH 6.5, 37 °C, then ABP 5
T3 construct: native secreted glycoprotein in arabinan-grown secretome, ~65 kDa on gel (~60 kDa after PNGaseF)
T3 sequence (A2R511 19-499): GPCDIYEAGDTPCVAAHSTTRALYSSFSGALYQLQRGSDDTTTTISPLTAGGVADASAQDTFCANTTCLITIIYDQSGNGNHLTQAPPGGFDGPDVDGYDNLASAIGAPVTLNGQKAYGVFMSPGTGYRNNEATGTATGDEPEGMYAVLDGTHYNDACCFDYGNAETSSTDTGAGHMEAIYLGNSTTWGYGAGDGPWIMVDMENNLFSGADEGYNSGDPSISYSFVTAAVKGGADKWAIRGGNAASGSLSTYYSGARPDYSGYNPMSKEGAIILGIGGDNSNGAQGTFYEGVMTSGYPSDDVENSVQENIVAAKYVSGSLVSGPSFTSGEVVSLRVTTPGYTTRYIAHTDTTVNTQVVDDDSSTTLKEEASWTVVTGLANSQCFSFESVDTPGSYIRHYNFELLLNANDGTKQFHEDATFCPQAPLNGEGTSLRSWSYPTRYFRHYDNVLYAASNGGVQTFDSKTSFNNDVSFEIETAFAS

[4] = molecular target: T4, GsGH51 (Geobacillus stearothermophilus abfA) (Geobacillus stearothermophilus, UniProt Q9XBQ3); test: X-ray crystallography ([…] Å) and intact MS; type: binding; details: covalent; nucleophile E294
T4 construct: E. coli BL21(DE3) Gold, pET28a(+), N-terminal TEV-cleavable 6xHis tag removed
T4 sequence (Q9XBQ3 whole entry): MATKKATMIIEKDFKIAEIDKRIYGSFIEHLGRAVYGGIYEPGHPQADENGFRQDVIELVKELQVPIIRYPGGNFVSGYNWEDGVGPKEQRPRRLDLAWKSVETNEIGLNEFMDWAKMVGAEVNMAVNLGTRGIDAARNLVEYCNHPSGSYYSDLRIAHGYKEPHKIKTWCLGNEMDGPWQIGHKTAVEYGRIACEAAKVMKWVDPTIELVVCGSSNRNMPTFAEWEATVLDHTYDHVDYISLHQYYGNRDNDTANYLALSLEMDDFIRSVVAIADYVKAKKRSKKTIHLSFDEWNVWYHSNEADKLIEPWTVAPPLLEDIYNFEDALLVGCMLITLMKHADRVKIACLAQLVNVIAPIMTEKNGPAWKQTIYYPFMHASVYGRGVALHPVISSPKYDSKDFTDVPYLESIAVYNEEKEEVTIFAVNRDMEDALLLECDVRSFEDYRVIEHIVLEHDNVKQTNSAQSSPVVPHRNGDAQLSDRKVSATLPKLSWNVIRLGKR

[5] = molecular target: T5, AbfE (GH51) (Aspergillus niger, UniProt A2QT56); test: competition with ABP […] pull-down, LC-MS/MS; type: biochemical; details: covalent; 0.1 mM inhibitor 1 h, pH 6.5, 37 °C, then ABP 5
T5 construct: gene An09g00880; native secreted protein in arabinan-grown secretome
T5 sequence (A2QT56 32-646): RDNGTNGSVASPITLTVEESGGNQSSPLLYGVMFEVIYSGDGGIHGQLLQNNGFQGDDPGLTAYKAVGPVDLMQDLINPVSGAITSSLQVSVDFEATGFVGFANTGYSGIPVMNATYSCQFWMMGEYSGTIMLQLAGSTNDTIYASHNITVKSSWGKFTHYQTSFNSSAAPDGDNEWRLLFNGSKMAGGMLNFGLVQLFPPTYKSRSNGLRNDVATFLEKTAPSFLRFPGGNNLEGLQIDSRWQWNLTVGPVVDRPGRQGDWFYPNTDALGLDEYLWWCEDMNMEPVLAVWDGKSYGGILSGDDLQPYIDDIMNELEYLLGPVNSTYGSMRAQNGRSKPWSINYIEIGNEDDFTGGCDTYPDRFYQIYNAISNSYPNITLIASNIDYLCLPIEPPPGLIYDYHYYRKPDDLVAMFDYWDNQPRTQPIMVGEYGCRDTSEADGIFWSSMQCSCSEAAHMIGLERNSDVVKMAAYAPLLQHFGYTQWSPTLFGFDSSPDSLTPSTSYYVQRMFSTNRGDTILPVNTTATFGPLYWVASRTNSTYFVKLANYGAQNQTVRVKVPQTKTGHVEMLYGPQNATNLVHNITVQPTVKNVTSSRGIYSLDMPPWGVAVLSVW

[6] = substrate: Cc1cc(=O)oc2cc(O[C@@H]3O[C@@H](CO)[C@H](O)[C@H]3O)ccc12; test: continuous fluorescence assay, Michaelis-Menten; type: biochemical, Aspergillus niger; details: 4-500 μM substrate, 50 mM sodium phosphate pH 7.0, 25 °C
[7] = substrate: Cc1cc(=O)oc2cc(O[C@@H]3O[C@@H](CO)[C@H](O)[C@H]3O)ccc12; test: continuous fluorescence assay, Michaelis-Menten; type: biochemical, Aspergillus luchuensis; details: 4-500 μM substrate, 50 mM sodium phosphate pH 7.0, 25 °C
[8] = 4MU-Araf 100 μM, 50 mM sodium phosphate pH 7.0, 25 °C; up to 0.25 mM inhibitor
[9] = covalent; mechanism-based; 4MU-Araf 100 μM, 50 mM sodium phosphate pH 7.0, 25 °C; read-out: KI
[10] = read-out: KI; covalent; mechanism-based; 4MU-Araf 100 μM, 50 mM sodium phosphate pH 7.0, 25 °C
[11] = covalent; mechanism-based; 4MU-Araf 100 μM, 50 mM sodium phosphate pH 7.0, 25 °C

OC[C@H]1[C@H](O)[C@@H](O)[C@@H]2O[C@H]12 [compound 1]
kinact/KI [1, 8]: < 0.1 M⁻¹ s⁻¹
kinact/KI [2, 8]: < 0.1 M⁻¹ s⁻¹

OC[C@H]1[C@H](O)[C@@H](O)[C@@H]2N[C@H]12 [compound 2, inhibitor 2]
competition with ABP 5 pull-down, LC-MS/MS [3]: significantly reduced signal for peptides from AbfA, AbfB, and AbfE
X-ray crystallography (1.40 Å) and intact MS [4]: full occupancy covalent complex between E294, the known catalytic nucleophile, and each inhibitor
KI (inactivation) [1, 9]: 320 ± 50 µM
competition with ABP 5 pull-down, LC-MS/MS [5]: significantly reduced signal for peptides from AbfA, AbfB, and AbfE
KI (inactivation) [2, 9]: 140 ± 20 µM

NCCCCCCCCN1[C@@H]2[C@@H](CO)[C@H](O)[C@@H](O)[C@@H]21 (stereo partly shown) [compound 3, inhibitor 3]
KI (inactivation) [1, 10]: 320 ± 40 µM
KI (inactivation) [2, 10]: 210 ± 30 µM

O=S1(=O)O[C@@H]2[C@@H](CO)[C@H](O)[C@@H](O)[C@@H]2O1 [compound 6, inhibitor 6]
X-ray crystallography (1.40 Å) and intact MS [4]: full occupancy covalent complex between E294, the known catalytic nucleophile, and each inhibitor
kinact/KI [1, 11]: 240 ± 30 M⁻¹ s⁻¹
kinact/KI [2, 11]: 160 ± 20 M⁻¹ s⁻¹

B1: AnAbfA (GH51) (Aspergillus niger CBS 513.88) (protein)
chain: ISLKVSTQGGNSSSPILYGFMFEDINHSGDGGIYGQMLQNPGLQGTAPNLTAWAAVGDATIAIDGDSPLTSAIPSTIKLNIADDATGAVGLTNEGYWGIPVDGSEFHSSFWIKGDYSGDITVRLVGNYTGTEYGSTTITHTSTADNFTQASVKFPTTKAPDGNVLYELTVDGSVAAGSSLNFGYLTLFGETYKSRENGLKPQLANVLDDMKGSFLRFPGGNNLEGNSAENRWKWNETIGDLWDRPGREGTWTYYNTDGLGLHEYFYWCEDLGLVPVLGVWDGFALESGGNTPLTGDALTPYIDDVLNELEYILGDTSTTYGAWRAANGQEEPWNLTMVEIGNEDMLGGGCESYAERFTAFYDAIHAAYPDLILIASTSEADCLPESMPEGSWVDYHDYSTPDGLVGQFNYFDNLNRSVPYFIGEYSRWEIDWPNMKGSVAEAVFMIGFERNSDVVKMAAYAPLLQLINSTQWTPDLIGYTQSPGDIFLSTSYYVQEMFSRNRGDTIKEVTSDSDFGPLYWVASSAGDSYYMKLANYGSETQDLTVSIPGTSTGKLTVLADSDPDAYNSDTQTLVTPSESTVQASNGTFTFSLPAWAVAVLAAN
notes: synthetic gene in pPICZalpha (vector fragment amplified from untagged AkAbfB plasmid), secreted from Pichia pastoris X-33
Km [6]: 240 ± 20 µM
kcat [6]: 2.17 ± 0.167 s⁻¹

B2: AkAbfB (GH54) (Aspergillus luchuensis IFO 4308) (protein)
chain: AGPCDIYEAGDTPCVAAHSTTRALYSSFSGALYQLQRGSDDTTTTISPLTAGGIADASAQDTFCANTTCLITIIYDQSGNGNHLTQAPPGGFDGPDTDGYDNLASAIGAPVTLNGQKAYGVFMSPGTGYRNNEATGTATGDEAEGMYAVLDGTHYNDACCFDYGNAETSSTDTGAGHMEAIYLGNSTTWGYGAGDGPWIMVDMENNLFSGADEGYNSGDPSISYRFVTAAVKGGADKWAIRGANAASGSLSTYYSGARPDYSGYNPMSKEGAIILGIGGDNSNGAQGTFYEGVMTSGYPSDDTENSVQENIVAAKYVVGSLVSGPSFTSGEVVSLRVTTPGYTTRYIAHTDTTVNTQVVDDDSSTTLKEEASWTVVTGLANSQCFSFESVDTPGSYIRHYNFELLLNANDGTKQFHEDATFCPQAALNGEGTSLRSWSYPTRYFRHYENVLYAASNGGVQTFDSKTSFNNDVSFEIETAFAS
notes: pPICZalpha, no purification tag, secreted from Pichia pastoris X-33; EndoH-deglycosylated for MS and crystallography
Km [7]: 390 ± 30 µM
kcat [7]: 3.5 ± 0.167 s⁻¹
